Tested on: asexual blood-stage P. falciparum (clone 3D7)
Test: SYBR Green I parasite growth assay
Type: cell-based, Plasmodium falciparum
Description: The impact of the peptidic boronic acids on replication of asexual blood-stage P. falciparum (clone 3D7) was assessed using a SYBR Green I assay, essentially as described by Smilkstein et al. ([22]). Briefly, test compounds (dissolved in dimethyl sulfoxide [DMSO] at concentrations ranging from 4 mM to 5 μM) were added in triplicate to wells of flat bottomed, 96-well microtitre plates (1 μL per well). Wells were then supplemented with 100 μL per well of a P. falciparum parasite culture at 0.1% parasitaemia, 1% hematocrit. Each assay plate also included DMSO-only control wells (1% vol/vol), as well as additional control wells containing uninfected RBCs only. Plates were incubated in sealed, humidified gassed chambers at 37 °C for 96 h to allow the parasites to undergo two entire cycles of erythrocytic growth. Wells were then supplemented with 100 μL 1:5,000 dilution of stock SYBR Green I (Life Technologies, catalog no. S7563) diluted in 20 mM Tris HCl pH 7.5, 5 mM EDTA, 0.008% (weight/vol) saponin, 0.08% (vol/vol) Triton ×100. Plates were agitated to mix, incubated for a further 1 h in the dark at room temperature, then 150 μL samples from each well transferred to a fresh white microwell plate and fluorescence quantified using a SpectraMax M5e plate reader and SoftMax Pro-6.3 software (Ex 485 nm/Em 530 nm). IC50 values were determined from dose–response curves obtained after subtracting background fluorescence values (obtained from the RBC-only wells) from all experimental readings.

In the case of CC(=O)NC(C(=O)NC(C(=O)NCC(=O)NC(C)B(O)O)C(C)C)C1CCCC1 (stereo not drawn) [3j], the EC50 (Plasmodium falciparum, 3D7, 96 h, two erythrocytic growth cycles, SYBR Green I) is reported as 0.26 ± 0.06 µM, the “improved growth inhibitory potency” value (relative to compound 3b) is reported as about 10 fold and the “higher potency in long-term growth assay” value (relative to short-term egress assays) is reported as about 10 fold.

— PMC8157947, “Peptidic boronic acids are potent cell-permeable inhibitors of the malaria parasite egress serine protease SUB1” (Proceedings of the National Academy of Sciences of the …, 2021)
